From PMC5843811, “^44Sc for labeling of DOTA- and NODAGA-functionalized peptides: preclinical in vitro and in vivo investigations” (EJNMMI Radiopharmacy and Chemistry, 2016)

Assays:
[1] = test system: AR42J tumor-bearing mice; assay: PET/CT imaging of AR42J tumor-bearing mice; details: 3 h after i.v. injection of ~10 MBq (~1 nmol; ^44Sc-NODAGA-NOC ~3 nmol), one or two mice
Procedure: A bench-top preclinical PET scanner (G8, Sofie Biosciences, California, U.S.A. and Perkin Elmer, Massachusetts, U.S.A.) was employed for the PET scans of the tumor-bearing mice. The energy window was set to 150–650 keV. Mice were injected intravenously with ^44Sc- or ^68Ga-labeled peptides (~10 MBq, ~1 nmol per mouse) in a volume of 100–200 μL. The PET scans were performed 3 h and 5 h after injection of the ^44Sc-labeled peptides and 3 h after injection of the ^68Ga-labeled peptides, using G8 acquisition software (version 2.0.0.10). All static PET scans lasted for 20 min. During the acquisition the mice were anesthetized by inhalation of a mixture of isoflurane and oxygen. The images were reconstructed with maximum-likelihood expectation maximization (MLEM). Gauss post-reconstruction filtering was performed using VivoQuant post-processing software (version 2.10, inviCRO Imaging Services and Software, Boston, U.S.A.).

[2] = Biodistribution in AR42J tumor-bearing mice; details: female, CD-1 nude (athymic nude), mouse, iv, total radioactivity, i.v. ~5 MBq (~1 nmol), mean ± SD, n=3; for tissue to tissue ratio at 0.5 h / tissue uptake at 0.5 h: 30 min p.i.; for tissue to tissue ratio at 2 h / tissue uptake at 2 h: 2 h p.i.; for tissue to tissue ratio at 5 h / tissue uptake at 5 h: 5 h p.i.; for tissue uptake at 0.5 h / tissue uptake at 2 h / tissue uptake at 5 h: Biodistribution
Procedure: Female athymic nude mice (CD-1 nude), age 5–6 weeks, were obtained from Charles River Laboratories, Sulzfeld, Germany. U87MG cells and AR42J-cells were suspended in PBS (5 × 10^6 cells in 100 μL) and subcutaneously inoculated on each shoulder. Two to three weeks later, when the tumor reached a size of about 300–500 mm^3, the mice were used for the in vivo studies.
Biodistribution studies were performed with U87MG tumor and AR42J tumor-bearing mice 2 weeks after tumor cell inoculation. ^44Sc- and ^68Ga-labeled peptides (~5 MBq, ~1 nmol per mouse) were intravenously injected in a volume of 100–200 μL. Mice were sacrificed at 30 min, 2 h and 5 h after injection (p.i.) of the ^44Sc-labeled peptides. Mice which were injected with ^68Ga-labeled peptides were sacrificed at 30 min and 2 h p.i. Selected tissues and organs were collected, weighed, and counted for radioactivity using a γ-counter (Wallac Wizard 1480, Perkin Elmer). The results were listed as a percentage of the injected activity per gram of tissue mass (% IA/g), using counts of a defined volume of the original injection solution counted at the same time. The data were analyzed for significance using a two-way ANOVA test (Graph Pad Prism 6 software, version 6.05). A p-value of < 0.05 was considered statistically significant.

[3] = AR42J tumor / blood, Tumor-to-blood ratio
[4] = AR42J tumor / kidneys, Tumor-to-kidney ratio
[5] = AR42J tumor / liver, Tumor-to-liver ratio

PET/CT distribution of radioactivity (in words) [1]: accumulated solely in tumors and kidneys
tissue to tissue ratio at 0.5 h [2, 3]: 5.23 ± 0.22
tissue to tissue ratio at 2 h [2, 3]: 50.3 ± 16.8
tissue to tissue ratio at 5 h [2, 3]: 78.6 ± 6.95
tissue to tissue ratio at 0.5 h [2, 4]: 0.8 ± 0.1
tissue to tissue ratio at 2 h [2, 4]: 1.22 ± 0.34
tissue to tissue ratio at 5 h [2, 4]: 0.87 ± 0.24
tissue to tissue ratio at 0.5 h [2, 5]: 8.13 ± 0.72
tissue to tissue ratio at 5 h [2, 5]: 11.6 ± 1.51
tissue uptake at 0.5 h ([2]; AR42J tumor): 9.9 ± 0.66 %ID/g
tissue uptake at 2 h ([2]; AR42J tumor): 10.2 ± 1.17 %ID/g
tissue uptake at 5 h ([2]; AR42J tumor): 10.8 ± 0.37 %ID/g
tissue uptake at 5 h ([2]; adrenals): 2.87 ± 0.95 %ID/g
tissue uptake at 0.5 h ([2]; blood): 1.89 ± 0.08 %ID/g
tissue uptake at 2 h ([2]; blood): 0.22 ± 0.06 %ID/g
tissue uptake at 5 h ([2]; blood): 0.14 ± 0.01 %ID/g
tissue uptake at 0.5 h ([2]; bone): 1.38 ± 0.17 %ID/g
tissue uptake at 5 h ([2]; bone): 0.46 ± 0.06 %ID/g
tissue uptake at 0.5 h ([2]; brain): 0.09 ± 0.01 %ID/g
tissue uptake at 5 h ([2]; brain): 0.06 ± 0.01 %ID/g
tissue uptake at 5 h ([2]; heart): 0.3 ± 0.04 %ID/g
tissue uptake at 0.5 h ([2]; intestines, 5 MBq per mouse): 0.74 ± 0.1 %ID/g
tissue uptake at 2 h ([2]; intestines): 0.29 ± 0.07 %ID/g
tissue uptake at 5 h ([2]; intestines): 0.38 ± 0.06 %ID/g
tissue uptake at 0.5 h ([2]; kidneys): 12.4 ± 1.41 %ID/g
tissue uptake at 2 h ([2]; kidneys): 8.64 ± 1.62 %ID/g
tissue uptake at 5 h ([2]; kidneys): 13 ± 2.98 %ID/g
tissue uptake at 0.5 h ([2]; liver): 1.22 ± 0.11 %ID/g
tissue uptake at 2 h ([2]; liver): 0.88 ± 0.15 %ID/g
tissue uptake at 5 h ([2]; liver): 0.94 ± 0.12 %ID/g
tissue uptake at 0.5 h ([2]; lung): 4.28 ± 0.03 %ID/g
tissue uptake at 2 h ([2]; lung): 1.19 ± 0.28 %ID/g
tissue uptake at 5 h ([2]; lung): 0.89 ± 0.14 %ID/g
tissue uptake at 0.5 h ([2]; muscle): 0.66 ± 0.08 %ID/g
tissue uptake at 5 h ([2]; muscle): 0.26 ± 0.07 %ID/g
tissue uptake at 0.5 h ([2]; pancreas, 5 MBq per mouse): 1.6 ± 0.12 %ID/g
tissue uptake at 2 h ([2]; pancreas, 5 MBq per mouse): 1.12 ± 0.07 %ID/g
tissue uptake at 5 h ([2]; pancreas, 5 MBq per mouse): 1.35 ± 0.29 %ID/g
tissue uptake at 0.5 h ([2]; spleen): 0.91 ± 0.2 %ID/g
tissue uptake at 2 h ([2]; spleen): 0.38 ± 0.05 %ID/g
tissue uptake at 5 h ([2]; spleen): 0.47 ± 0.05 %ID/g
tissue uptake at 0.5 h ([2]; stomach, 5 MBq per mouse): 1.45 ± 0.28 %ID/g
tissue uptake at 2 h ([2]; stomach, 5 MBq per mouse): 1.26 ± 0.22 %ID/g
tissue uptake at 5 h ([2]; stomach, 5 MBq per mouse): 1.24 ± 0.09 %ID/g
SMILES: C[C@@H](O)[C@@H]1NC(=O)[C@H](CCCCN)NC(=O)[C@@H](Cc2c[nH]c3ccccc23)NC(=O)[C@H](Cc2cccc3ccccc23)NC(=O)[C@@H](NC(=O)[C@@H](Cc2ccccc2)NC(=O)CCC(C(=O)O)N2CCN(CC(=O)O)CCN(CC(=O)O)CC2)CSSC[C@@H](C(=O)N[C@H](CO)[C@@H](C)O)NC1=O (some centres unmarked) [^44Sc-NODAGA-NOC, metal not drawn]
